These results are taken from PubChem BioAssay (NCI).

Test systems include OVCAR-8 ovarian; ACHN renal; HL-60(TB) leukemia; HCC-2998 colon; OVCAR-5 ovarian; KM12 colon; NCI-H460 lung; HCT-15 colon; UACC-257 melanoma; SK-MEL-2 melanoma.
Assay in all cases: NCI-60 cell line screen, 48 h

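A five-concentration, 48-hour dose response in 96-well plates underlies each endpoint, interpolated linearly between surrounding concentrations. GI50 marks 50% less growth. The concentration for full growth arrest is given as TGI.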

Consider `CC(C)(C)[Si](C)(C)OCC1CCC(n2cnc3c(=O)[nH]cnc32)O1` (stereo unspecified), for which the TGI in the assay with OVCAR-8 ovarian, in the assay on ACHN renal, in the assay with HL-60(TB) leukemia, in the assay on HCC-2998 colon, in the assay with OVCAR-5 ovarian and in the assay with KM12 colon was > 100 µM in each case. The TGI in the assay on NCI-H460 lung, with HCT-15 colon, in the assay on UACC-257 melanoma and with SK-MEL-2 melanoma was > 100 µM each time.
Consider `Cc1c(C(=O)CC(=O)C(=O)Nc2c(C(C)C)cccc2C(C)C)[n+](=O)c2ccccc2n1[O-]`, for which the TGI with OVCAR-8 ovarian is 7.38 µM; in the assay with ACHN renal, 15.3 µM; in the assay with HL-60(TB) leukemia, 6.91 µM; in the assay with HCC-2998 colon it was 16.6 µM; in the assay with OVCAR-5 ovarian, 35.6 µM; with KM12 colon, 15.7 µM. For the same compound, the TGI was 7.02 µM in the assay on NCI-H460 lung, 8.43 µM with HCT-15 colon, 12.6 µM in the assay on UACC-257 melanoma and 28.4 µM in the assay with SK-MEL-2 melanoma.
Consider `COc1cccc(C(=O)Nc2ccc(CN3CCc4nc5cc(OC)c(OC)cc5cc43)cc2)c1`, for which the GI50 with OVCAR-8 ovarian was 3.88 µM; in the assay on ACHN renal, 3.08 µM; in the assay on HL-60(TB) leukemia, 4.92 µM; in the assay on HCC-2998 colon, 4.81 µM; in the assay on OVCAR-5 ovarian, 12.9 µM; with KM12 colon, 2.09 µM. Besides, the GI50 is 2.84 µM with NCI-H460 lung, 3.32 µM with HCT-15 colon, 5.47 µM with UACC-257 melanoma and 8.8 µM in the assay on SK-MEL-2 melanoma. Also, the TGI was > 100 µM in the assay with OVCAR-8 ovarian; > 100 µM with ACHN renal; 27.7 µM with HL-60(TB) leukemia; 18.5 µM in the assay with HCC-2998 colon; > 100 µM in the assay on OVCAR-5 ovarian; 5.29 µM with KM12 colon. Also, the TGI with NCI-H460 lung was 8.71 µM; in the assay on HCT-15 colon, 19.3 µM; with UACC-257 melanoma, 92.6 µM; in the assay on SK-MEL-2 melanoma it was 22.4 µM.
For the compound `O=C1c2ccccc2NC(c2cc(Cl)cc(Cl)c2O)N1CCc1ccccn1` (stereo unspecified), the TGI in the assay on OVCAR-8 ovarian, with ACHN renal, in the assay on HL-60(TB) leukemia, in the assay with HCC-2998 colon, in the assay with OVCAR-5 ovarian and in the assay on KM12 colon was > 100 µM each time. Further, the TGI in the assay on NCI-H460 lung, in the assay on HCT-15 colon, in the assay on UACC-257 melanoma and with SK-MEL-2 melanoma was > 100 µM each time.
`CCOC(=O)c1cc(/C=C/C(C)=C/C(=O)OC)oc1-c1ccccc1`: the TGI in the assay with OVCAR-8 ovarian, in the assay with ACHN renal, in the assay on HL-60(TB) leukemia, with HCC-2998 colon, with OVCAR-5 ovarian and in the assay with KM12 colon was > 100 µM each time. Also, the TGI in the assay on NCI-H460 lung, in the assay on HCT-15 colon, in the assay with UACC-257 melanoma and with SK-MEL-2 melanoma was > 100 µM in each case.
For `Cc1c(C)c2c(c(C)c1NC(=O)/C=C\C(=O)O)CCC(C)(CCCC(C)CCCC(C)CCCC(C)C)O2` (stereo unspecified), the GI50 with OVCAR-8 ovarian was 2.29 µM; with ACHN renal it was 1.7 µM; with HL-60(TB) leukemia it was 1.38 µM; with HCC-2998 colon, 1.91 µM; with OVCAR-5 ovarian it was 1.72 µM; in the assay on KM12 colon it was 1.67 µM. Further, the GI50 was 1.45 µM in the assay with NCI-H460 lung, 1.83 µM in the assay on HCT-15 colon, 1.72 µM in the assay on UACC-257 melanoma and 1.86 µM in the assay on SK-MEL-2 melanoma. The TGI in the assay with OVCAR-8 ovarian was 7.62 µM; in the assay on ACHN renal it was 3.07 µM; in the assay with HL-60(TB) leukemia it was 6.82 µM; in the assay on HCC-2998 colon, 3.64 µM; in the assay on OVCAR-5 ovarian it was 4.05 µM; with KM12 colon, 3.17 µM. The TGI was 2.96 µM with NCI-H460 lung, 4.65 µM in the assay on HCT-15 colon, 3.83 µM with UACC-257 melanoma and 3.68 µM in the assay with SK-MEL-2 melanoma.
For `CCCN(CCCN)/[N+]([O-])=N\O`, the TGI in the assay on OVCAR-8 ovarian, with ACHN renal, in the assay with HL-60(TB) leukemia, in the assay on HCC-2998 colon, with OVCAR-5 ovarian and in the assay with KM12 colon was > 100 µM in each case. Besides, the TGI in the assay with NCI-H460 lung, in the assay on HCT-15 colon, in the assay on UACC-257 melanoma and with SK-MEL-2 melanoma was > 100 µM throughout.
For `COc1ccc(CN2C(=O)C(Cc3cc(OC)c(OC)c(C)c3OC)NC(=O)/C2=C/c2cc(OC)c(OC)c(C)c2OC)cc1` (stereo unspecified), the TGI with OVCAR-8 ovarian is > 100 µM; with ACHN renal it was > 100 µM; in the assay on HL-60(TB) leukemia, 45.8 µM; in the assay with HCC-2998 colon, 90.9 µM; in the assay on OVCAR-5 ovarian it was > 100 µM; in the assay with KM12 colon, > 100 µM. Moreover, the TGI in the assay with NCI-H460 lung is 57 µM; in the assay with UACC-257 melanoma, > 100 µM; with SK-MEL-2 melanoma, 43.2 µM.
Consider `COc1cc2ccccc2c2cc([N+](=O)[O-])oc12`, for which the TGI is > 71.8 µM with OVCAR-8 ovarian; > 31.2 µM in the assay with HL-60(TB) leukemia; 1.09 µM in the assay with HCC-2998 colon; 9.93 µM in the assay on OVCAR-5 ovarian; 4.68 µM in the assay with KM12 colon; 1.06 µM in the assay on NCI-H460 lung. Further, the figures for the TGI with HCT-15 colon, with UACC-257 melanoma and in the assay with SK-MEL-2 melanoma were 23.7 µM, 0.443 µM and 0.452 µM, respectively. The GI50 with HCC-2998 colon is 0.294 µM.
As for `COc1ccc(-c2nn(-c3ccc(NC(=O)c4ccc(Cl)c(C(F)(F)F)c4)cc3)cc2-c2ccncc2)cc1Cl`, the GI50 in the assay with OVCAR-8 ovarian is 2.37 µM; with ACHN renal, 1.58 µM; in the assay with HL-60(TB) leukemia, 0.794 µM; in the assay on HCC-2998 colon, 1.06 µM; with OVCAR-5 ovarian, 1.33 µM; in the assay with KM12 colon, 0.514 µM. For the same compound, the GI50 with NCI-H460 lung was 0.441 µM; in the assay on UACC-257 melanoma, 4.68 µM; in the assay on SK-MEL-2 melanoma, 0.345 µM. The TGI in the assay with OVCAR-8 ovarian is > 100 µM; with ACHN renal it was > 100 µM; in the assay with HL-60(TB) leukemia, > 100 µM; in the assay on HCC-2998 colon, > 43.4 µM; in the assay with OVCAR-5 ovarian, > 100 µM; in the assay on KM12 colon, > 100 µM. For the same compound, the TGI is > 100 µM with NCI-H460 lung, > 94.9 µM in the assay on UACC-257 melanoma and 1.44 µM in the assay with SK-MEL-2 melanoma.
For the compound `CC1(C)C(c2ccccc2)=NN(O)c2ccccc21`, the TGI with OVCAR-8 ovarian, with HL-60(TB) leukemia, in the assay with HCC-2998 colon, in the assay on OVCAR-5 ovarian, with KM12 colon and in the assay with NCI-H460 lung was > 100 µM in each case. Moreover, the TGI in the assay on HCT-15 colon, in the assay on UACC-257 melanoma and in the assay on SK-MEL-2 melanoma was > 100 µM throughout.
